Measurements: patent publication US20100063065A1 (Inpharmatica Limited, priority 2005, published 2010)

Molecular target: T1, PPARδ (Homo sapiens, UniProt Q03181)
T1 construct: fused to amino acids 147-441 of PPARδ downstream of CMV promoter; expressed in transfected cells; host or cells: HEK293 cells, transiently transfected with pFACMV-PPARδ using Fugene
T1 sequence (Q03181 147-441): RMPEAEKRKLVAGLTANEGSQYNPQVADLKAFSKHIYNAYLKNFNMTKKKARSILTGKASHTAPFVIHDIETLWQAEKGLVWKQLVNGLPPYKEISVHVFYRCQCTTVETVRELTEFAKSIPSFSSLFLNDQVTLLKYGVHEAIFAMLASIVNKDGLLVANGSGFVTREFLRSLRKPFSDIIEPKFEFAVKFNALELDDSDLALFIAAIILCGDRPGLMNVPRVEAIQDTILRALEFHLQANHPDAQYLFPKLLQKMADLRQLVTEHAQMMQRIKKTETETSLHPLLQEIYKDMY
Assay: Transactivation assay (PPARδ GAL4 assay) in transiently transfected HEK293 cells
Type: cell-based
Conditions: luciferase reporter
Protocol: Compounds were screened for their functional potency in transiently transfected HEK293 cells for their ability to activate PPAR subtypes. Cells were cultured in DMEM (Invitrogen) supplemented with 10% foetal calf serum, glutamine, penicillin and streptomycin and plated at 10 000 cells/well of a 96-well solid white plate and incubated at 37° C./5% CO2 for 24 hours. Media was removed and the cells washed with PBS. Cells were then transiently transfected using Fugene (Roche) with 50 ng pFACMV-PPARδ (plasmid encoding amino acids 1-147 of the GAL4 DNA binding domain, fused to amino acids 147-441 of PPARδ downstream of CMV promoter) and 250 ng pFR-Luc (reporter plasmid containing 5×GAL4 response elements upstream of a luciferase gene), using a ratio of 3:1 Fugene:DNA. 100 μl of this transfection mixture in DMEM (without foetal calf serum) was added to each well, and the incubation continued for a further 24 hours. The cells are then again washed with PBS prior to the addition of 100 μl reduced serum medium (OptiMEM; Invitrogen). Compounds were added (10 μl in 2% DMSO in OptiMEM) to achieve final concentrations between 0-30 μM. The cells were then returned to the incubator for a further 24 hours. 100 μl of luciferase reagent (Bright Glo, Promega) was added directly to each well, and the luminescence determined using a suitable luminometer.
To measure the selectivity of compounds, their ability to transactivate GAL4 fusions of PPARα LBD and PPARγ LBD was determined. The activity of compounds was expressed as a percentage relative to control compounds: PPARγ rosiglitazone (BRL 49653), PPARδ GW501516 (11) or PPARα KCL1999000269 (12). EC50 values were calculated by fitting of the data to a sigmoidal dose response curve.

Row | SMILES | EC50 (Table 2) | EC50 (Table 1)
1 | CCc1cc(C(=O)c2ccc(OC(F)(F)F)cc2)c(NC(=O)CN(C)C2(C(=O)O)CC2)s1 [Example 197, 1-({[5-Ethyl-3-(4-trifluoromethoxy-benzoyl)-thiophen-2-ylcarbamoyl]-methyl}-methyl-amino)-cyclopropanecarboxylic acid] | 100 to 1000 nM | –
2 | CCc1cc(C(=O)c2nc3ccc(OC(F)(F)F)cc3s2)c(NC(=O)CSCC(=O)O)s1 [Example 153, {[5-Ethyl-3-(6-trifluoromethoxy-benzothiazole-2-carbonyl)-thiophen-2-ylcarbamoyl]-methylsulfanyl}-acetic acid] | 100 to 1000 nM | –
3 | CCc1cc(C(=O)c2ccccc2)c(NC(=O)CC2(CC(=O)O)CCCC2)s1 [Example 17, {1-[(3-Benzoyl-5-ethyl-thiophen-2-ylcarbamoyl)-methyl]-cyclopentyl}-acetic acid] | – | 1000 to 30000 nM
4 | CCc1cc(C(=O)c2ccc(OC(F)(F)F)cc2)c(NC(=O)CSCC(=O)O)s1 [Example 1, {[5-Ethyl-3-(4-trifluoromethoxy-benzoyl)-thiophen-2-ylcarbamoyl]-methylsulfanyl}-acetic acid] | – | < 100 nM
5 | CCc1cc(C(=O)c2ccc(Cl)cc2)c(NC(=O)CCC(C)(C)C(=O)O)s1 [Example 147, 4-[3-(4-Chloro-benzoyl)-5-ethyl-thiophen-2-ylcarbamoyl]-2,2-dimethyl-butyric acid] | 100 to 1000 nM | –
6 | CCc1cc(C(=O)c2cccc(-c3ccc(F)cc3)c2)c(NC(=O)CSCC(=O)O)s1 [Example 43] | – | 100 to 1000 nM
7 | CCc1cc(C(=O)c2ccc(OC(F)(F)F)cc2)c(NC(=O)CN[C@@](C)(CC)C(=O)O)s1 [Example 192, (S)-2-({[5-Ethyl-3-(4-trifluoromethoxy-benzoyl)-thiophen-2-ylcarbamoyl]-methyl}-amino)-2-methyl-butyric acid] | 100 to 1000 nM | –
8 | CCc1cc(C(=O)c2ccccc2)c(NC(=O)CC(C)(C)CC(=O)O)s1 [Example 16, 4-(3-Benzoyl-5-ethyl-thiophen-2-ylcarbamoyl)-3,3-dimethyl-butyric acid] | – | 1000 to 30000 nM
9 | CCc1cc(C(=O)c2cc3ccccc3n2C)c(NC(=O)CSCC(=O)O)s1 [Example 149, {[5-Ethyl-3-(1-methyl-1H-indole-2-carbonyl)-thiophen-2-ylcarbamoyl]-methylsulfanyl}-acetic acid] | 1000 to 30000 nM | –
10 | CCc1cc(C(=O)c2ccc(C#N)cc2)c(NC(=O)CSCC(=O)O)s1 [Example 35, {[3-(4-Cyano-benzoyl)-5-ethyl-thiophen-2-ylcarbamoyl]-methylsulfanyl}-acetic acid] | – | 1000 to 30000 nM
11 | CCc1cc(C(=O)c2ccc(Cl)cc2)c(NC(=O)CSc2ccc(OCC(=O)O)cc2)s1 [Example 136, (4-{[3-(4-Chloro-benzoyl)-5-ethyl-thiophen-2-ylcarbamoyl]-methylsulfanyl}-phenoxy)-acetic acid] | 1000 to 30000 nM | –
12 | CCc1cc(C(=O)c2ccc(-c3ccc(C(F)(F)F)cc3)cc2)c(NC(=O)CSCC(=O)O)s1 [Example 38, {[5-Ethyl-3-(4′-trifluoromethyl-biphenyl-4-carbonyl)-thiophen-2-ylcarbamoyl]-methylsulfanyl}-acetic acid] | – | < 100 nM
13 | CCc1cc(C(=O)c2cccc(-c3ccc(OC(F)(F)F)cc3)c2)c(NC(=O)CNC(C)(C)C(=O)O)s1 [Example 84, 2-({[5-Ethyl-3-(4′-trifluoromethoxy-biphenyl-3-carbonyl)-thiophen-2-ylcarbamoyl]-methyl}-amino)-2-methyl-propionic acid] | – | 100 to 1000 nM
14 | CCc1cc(C(=O)c2ccccc2)c(NC(=O)CSCC(=O)O)s1 [Example 14, [(3-Benzoyl-5-ethyl-thiophen-2-ylcarbamoyl)-methylsulfanyl]-acetic acid] | – | 1000 to 30000 nM
15 | CCc1cc(C(=O)c2ccc(-c3ccccn3)cc2)c(NC(=O)CSCC(=O)O)s1 [Example 145, {[5-Ethyl-3-(4-pyridin-2-yl-benzoyl)-thiophen-2-ylcarbamoyl]-methylsulfanyl}-acetic acid] | 100 to 1000 nM | –
16 | CCc1cc(C(=O)c2ccc(OC(F)(F)F)cc2)c(NC(=O)c2ccc(CCC(=O)O)cc2)s1 [Example 116, 3-{4-[5-Ethyl-3-(4-trifluoromethoxy-benzoyl)-thiophen-2-ylcarbamoyl]-phenyl}-propionic acid] | 100 to 1000 nM | –

Row | SMILES | EC50 (Table 2) | EC50 (Table 1)
17 | CCc1cc(C(=O)c2ccc(OC(F)(F)F)cc2)c(NC(=O)CN2[C@@H](C(=O)O)CC[C@@H]2c2ccc(F)cc2)s1 [Example 181, (2R,5R)-1-{[5-Ethyl-3-(4-trifluoromethoxy-benzoyl)-thiophen-2-ylcarbamoyl]-methyl}-5-(4-fluoro-phenyl)-pyrrolidine-2-carboxylic acid] | < 100 nM | –
18 | CCc1cc(C(=O)c2ccc(F)cc2)c(NC(=O)CSC(C)(C)C(=O)O)s1 [Example 19, 2-{[5-Ethyl-3-(4-fluoro-benzoyl)-thiophen-2-ylcarbamoyl]-methylsulfanyl}-2-methyl-propionic acid] | – | 100 to 1000 nM
19 | CCc1cc(C(=O)c2ccc(Cl)c(Cl)c2)c(NC(=O)CN[C@H](C(=O)O)C(C)C)s1 [Example 170, (S)-2-({[3-(3,4-Dichloro-benzoyl)-5-ethyl-thiophen-2-ylcarbamoyl]-methyl}-amino)-3—methyl-butyric acid] | 100 to 1000 nM | –
20 | CCc1cc(C(=O)c2ccc(OC(F)(F)F)cc2)c(NC(=O)c2ccc(OCC(=O)O)cc2)s1 [Example 99, {4-[5-Ethyl-3-(4-trifluoromethoxy-benzoyl)-thiophen-2-ylcarbamoyl]-phenoxy}-acetic acid] | – | < 100 nM
21 | CCc1cc(C(=O)c2ccc(OC(F)(F)F)cc2)c(NC(=O)CNC2(C(=O)O)CC2)s1 [Example 82, 1-({[5-Ethyl-3-(4-trifluoromethoxy-benzoyl)-thiophen-2-ylcarbamoyl]-methyl}-amino)-cyclopropanecarboxylic acid] | – | 1000 to 30000 nM
22 | CCc1cc(C(=O)c2ccc(C)c(C)c2)c(NC(=O)CC(C)(C)CC(=O)O)s1 [Example 52, 4-[3-(3,4-Dimethyl-benzoyl)-5-ethyl-thiophen-2-ylcarbamoyl]-3,3-dimethyl-butyric acid] | – | 1000 to 30000 nM
23 | CCc1cc(C(=O)c2ccc(OC(F)(F)F)cc2)c(NC(=O)CC(C)(C)CC(=O)O)s1 [Example 3, 4-[5-Ethyl-3-(4-trifluoromethoxy-benzoyl)-thiophen-2-ylcarbamoyl]-3,3-dimethyl-butylic acid] | – | 100 to 1000 nM
24 | COc1ccc(C(=O)c2cc(C(C)C)sc2NC(=O)CSCC(=O)O)cc1 [Example 62, {[5-Isopropyl-3-(4-methoxy-benzoyl)-thiophen-2-ylcarbamoyl]-methylsulfanyl}-acetic acid] | – | 1000 to 30000 nM
25 | CCc1cc(C(=O)c2ccc(OC(F)(F)F)cc2)c(NC(=O)CSc2ccc(OCC(=O)O)cc2)s1 [Example 93] | – | 100 to 1000 nM
26 | CCc1cc(C(=O)c2cn(C)c3ccc(Cl)cc23)c(NC(=O)CSCC(=O)O)s1 [Example 157, {[3-(5-Chloro-1-methyl-1H-indole-3-carbonyl)-5-ethyl-thiophen-2-ylcarbamoyl]-methylsulfanyl}-acetic acid] | 100 to 1000 nM | –
27 | CCc1cc(C(=O)c2ccc(OC(F)(F)F)cc2)c(NC(=O)CSc2ccc(CCC(=O)O)cc2)s1 [Example 96, 3-(4-{[5-Ethyl-3-(4-trifluoromethoxy-benzoyl)-thiophen-2-ylcarbamoyl]-methylsulfanyl}-phenyl)-propionic acid] | – | 100 to 1000 nM
28 | CCc1ccc(C(=O)c2cc(CC)sc2NC(=O)CSCC(=O)O)cc1 [Example 9, {[5-Ethyl-3-(4-ethyl-benzoyl)-thiophen-2-ylcarbamoyl]-methylsulfanyl}-acetic acid] | – | 100 to 1000 nM
29 | CCc1cc(C(=O)c2cc(C)n(C)n2)c(NC(=O)CSCC(=O)O)s1 [Example 144, {[3-(1,5-Dimethyl-1H-pyrazole-3-carbonyl)-5-ethyl-thiophen-2-ylcarbamoyl]-methylsulfanyl}-acetic acid] | 1000 to 30000 nM | –
30 | CCc1cc(C(=O)c2ccc(OC(F)(F)F)cc2)c(NC(=O)CSc2ccc(OCC(=O)O)c(C)c2)s1 [Example 94, (4-{[5-Ethyl-3-(4-trifluoromethoxy-benzoyl)-thiophen-2-ylcarbamoyl]-methylsulfanyl}-2-methyl-phenoxy)-acetic acid] | – | 100 to 1000 nM
31 | CCc1cc(C(=O)c2cc3ccccc3o2)c(NC(=O)CSCC(=O)O)s1 [Example 140, {[3-(Benzofuran-2-carbonyl)-5-ethyl-thiophen-2-ylcarbamoyl]-methylsulfanyl}-acetic acid] | 1000 to 30000 nM | –
32 | O=C(O)CSCC(=O)Nc1sc(Cl)cc1C(=O)c1ccc(OC(F)(F)F)cc1 [Example 67, {[5-Chloro-3-(4-trifluoromethoxy-benzoyl)-thiophen-2-ylcarbamoyl]-methylsulfanyl}-acetic acid] | – | < 100 nM
